The text below walks through data of patent US20110112133A1, “DIHYDRO PYRROLOQUINOLINE DERIVATIVES” (Takeda Pharmaceutical Company Limited, priority 2009, published 2011).

The target of assay [1] is T1, hNK2 receptor (Homo sapiens, UniProt P21452).
T1 construct: host or cells: CHO cells
T1 sequence (P21452 1-398): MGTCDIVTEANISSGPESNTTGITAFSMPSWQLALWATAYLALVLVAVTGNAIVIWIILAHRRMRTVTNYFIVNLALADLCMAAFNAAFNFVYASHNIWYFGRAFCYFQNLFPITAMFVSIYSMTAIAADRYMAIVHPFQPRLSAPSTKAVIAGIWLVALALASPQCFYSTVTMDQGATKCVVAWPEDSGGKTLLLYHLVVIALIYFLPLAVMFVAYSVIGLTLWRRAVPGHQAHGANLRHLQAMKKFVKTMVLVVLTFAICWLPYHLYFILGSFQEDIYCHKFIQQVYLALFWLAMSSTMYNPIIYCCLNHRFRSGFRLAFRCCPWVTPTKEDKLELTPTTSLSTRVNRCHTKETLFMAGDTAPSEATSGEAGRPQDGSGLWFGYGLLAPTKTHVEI
Nature of the assay: Radioligand receptor binding inhibitory activity using membrane fraction of hNK2 receptor-expressing CHO cell ([125I]-NKA). The following applies: for inhibition at 10 µM: test compound 10^−5 M; for inhibition at 10 µM / inhibition at 1 µM / inhibition at 0.1 µM / inhibition at 0.01 µM: read-out: hNK2 receptor binding inhibitory activity (inhibitory rate (%)). How it is done: Radioligand Receptor Binding Inhibitory Activity Using Membrane Fraction of hNK2 Receptor-Expressing CHO Cell
hNK2 receptor-expressing CHO cells (produced by EUROSCREEN) were cultured in a flask placed HAM-F12 medium containing 400 μg/mL Geneticin, 100 U/mL penicillin, 100 μg/mL streptomycin and 10% inactivated serum. The medium was removed and adhered cells were washed with PBS, and PBS containing 5 mM EDTA was added to detach the cells from the flask. The cells were recovered by centrifugation, suspended in suspending buffer A (15 mM Tris-HCl (pH 7.5), 12.5 mM MgCl2, 0.3 mM EDTA, 1 mM EGTA (Ethylene Glycol Bis(beta-aminoethylether)-N,N,N,N-tetraacetic Acid)), disrupted by POLYTRON homogenizer (manufactured by KINEMATICA) and centrifuged at 850×g for 10 min at 4° C. The supernatant was recovered and ultracentrifuged at 142000×g for 60 min at 4° C. The precipitated fraction was suspended in suspending buffer B (7.5 mM Tris-HCl (pH 7.5), 12.5 mM MgCl2, 0.3 mM EDTA, 1 mM EGTA, 250 mM sucrose), and cryopreserved (at −80° C.) as a membrane fraction preparation of hNK2 receptor-expressing CHO cell.
The radioligand receptor binding assay was performed in a 96 well microassay plate format with a final volume of 200 μL.
An assay buffer (50 μL, 50 mM Tris-HCl (pH 7.4), 0.02% bovine serum albumin, 2 μg/mL chymostatin, 40 μg/mL bacitracin, 40 μg/mL APMSF, 3 mM MnCl2) was added to a 96 well microassay plate. Thereto was added 50 μL of the above-mentioned cryopreserved membrane fraction preparation suspended in the assay buffer (20 μg/mL). An assay buffer (50 μL) containing 2% dimethyl sulfoxide was added to examine the total binding, 4 μM unlabeled NKA (produced by Peptide Institute, Inc.) solution (50 μL) diluted with an assay buffer containing 2% dimethyl sulfoxide was added to examine non-specific binding, and a test compound diluted with an assay buffer (50 μL, containing 2% dimethyl sulfoxide) was added. Furthermore, […] [^125I]-NKA (produced by NEN) solution (50 μL) was added to each well.
After reaction at room temperature for 30 min, using a cell harvester (manufactured by PerkinElmer), the reaction was stopped by rapid filtration on a unifilter plate (GF/C) (manufactured by PerkinElmer), which had been immersed in 0.3% aqueous polyethyleneimine solution for one day, and the cells were washed 10 times with 50 mM Tris-HCl (pH 7.4) buffer (250 μL) containing 0.02% bovine serum albumin. The GF/C filter plate was dried and 20 μL of MicroScinti-0 (manufactured by PerkinElmer) was added to each well and the radioactivity was measured by TopCount (manufactured by PerkinElmer).
Specific binding is shown by the value obtained by subtracting non-specific binding from the total binding. The binding inhibitory activity of the test compound is shown by the ratio of the value obtained by subtracting the measured value associated with the addition of the test compound from the total binding, to the value of the specific binding.

Assay [2] deals with T1, hNK2 receptor. Nature of the assay: Antagonistic activity determined by intracellular calcium concentration using neurokinin A and hNK2 receptor-expressing CHO cell (FLIPR). The following applies: neurokinin A stimulation; for inhibition at 10 µM / inhibition at 1 µM / inhibition at 0.1 µM / inhibition at 0.01 µM: CHO, read-out: Antagonistic activity (inhibitory rate (%)). Format: cell-based. How it is done:
Evaluation of Antagonistic Activity Determined by Intracellular Calcium Concentration Using Test Compound, Neurokinin A and hNK2 Receptor-Expressing CHO Cell
hNK2 receptor-expressing CHO cells were seeded on a 384 well plate at 7.5×10^3 cells/well and cultured for 24 hr. Then the medium was removed, 1× recording medium (30 μL, Calcium kit II-Fluo 4: DOJINDO LABORATORIES, Japan) containing prepared 2.5 μg/mL Fluo 4, 2.5 mM probenecid and 20 mM HEPES was added, and the cells were cultured in CO2 incubator (37° C., 5% CO2) for 1 hr. A test compound diluted with 1× recording medium containing 0.05% bovine serum albumin and 20 mM HEPES (10 μL, 0.6% dimethyl sulfoxide) was added. Thereafter, 3 nM neurokinin A solution (20 μL) was added, and changes in the intracellular calcium concentration were measured by FLIPR (Molecular Devices Corporation, Japan). The inhibitory rate of the test compound was calculated with a reaction using DMSO alone and free of the compound as […] and a reaction using 1 nM NKA as 0% inhibition.
Background: Calcium flux is commonly read through the fluorescence of an indicator in the cells.

Take `Cc1ccn(-c2ccc(C(=O)N[C@@H]3CCC(F)(F)C[C@@H]3C(=O)N3CCc4c(-c5ncc[nH]5)nc5ccccc5c43)cc2)n1.Cl` [Example 3, N-[(1R,2S)-4,4-difluoro-2-{(4-(1H-imidazol-2-yl)-2,3-dihydro-1H-pyrrolo[3,2-c]quinolin-1-yl]carbonyl}cyclohexyl]-4-(3-methyl-1H-pyrazol-1-yl)benzamide hydrochloride]: the “hNK2 receptor binding inhibitory activity (inhibitory rate (%))” value worked out at 101.7% in assay [1] (test compound 10^−6 M, hydrochloride); 101.4% in assay [1] (test compound 10^−7 M); 100.3% in assay [1] (test compound 10^−8 M, hydrochloride). In addition, the “Antagonistic activity (inhibitory rate (%))” value in assay [2] (test compound 10^−5 M) came out at 86.8%; in assay [2] (test compound 10^−6 M), 102.5%; in assay [2] (test compound 10^−7 M) it was 102.9%; in assay [2] (test compound 10^−8 M), 100.5%.
As to `Cc1ccn(-c2ccc(C(=O)N[C@@H]3CCC(F)(F)C[C@@H]3C(=O)N3CCc4c(-c5ncc[nH]5)nc5ccccc5c43)cc2)n1` [Example 1, N-[(1R,2S)-4,4-difluoro-2-{[4-(1H-imidazol-2-yl)-2,3-dihydro-1H-pyrrolo[3,2-c]quinolin-1-yl]carbonyl}cyclohexyl]-4-(3-methyl-1H-pyrazol-1-yl)benzamide], the entries for the “hNK2 receptor binding inhibitory activity (inhibitory rate (%))” value in assay [1] (test compound 10^−6 M), in assay [1] (test compound 10^−7 M) and in assay [1] (test compound 10^−8 M) were 101.1%, 100.5% and 99.7%, respectively. Besides, the inhibition at 10 µM in assay [2] (test compound 10^−5 M) amounted to 88.3%. Moreover, the inhibition at 1 µM in assay [2] (test compound 10^−6 M) came to 102%. The inhibition at 0.1 µM in assay [2] (test compound 10^−7 M) was determined as 102%. Further, the inhibition at 0.01 µM in assay [2] (test compound 10^−8 M) was 100%.
For the compound `Cc1ccn(-c2ccc(C(=O)N[C@@H]3CCC(F)(F)C[C@@H]3C(=O)N3CCc4c(-c5ncc[nH]5)nc5ccc(F)cc5c43)cc2)n1` [Example 5, N-[(1R,2S)-4,4-difluoro-2-{[8-fluoro-4-(1H-imidazol-2-yl)-2,3-dihydro-1H-pyrrolo[3,2-c]quinolin-1-yl]carbonyl}cyclohexyl]-4-(3-methyl-1H-pyrazol-1-yl)benzamide], the “hNK2 receptor binding inhibitory activity (inhibitory rate (%))” value in assay [1] (test compound 10^−6 M) is reported as 100.8%; in assay [1] (test compound 10^−7 M) it was 99.8%; in assay [1] (test compound 10^−8 M), 96.6%. For the same compound, the inhibition at 10 µM in assay [2] (test compound 10^−5 M) stood at 87.1%. Also, in assay [2] (test compound 10^−6 M), the inhibition at 1 µM was 100%. Further, the inhibition at 0.1 µM in assay [2] (test compound 10^−7 M) was 102%. Besides, in assay [2] (test compound 10^−8 M), the inhibition at 0.01 µM is 100%.
As for `Cc1ccn(-c2ccc(C(=O)N[C@@H]3CCC(F)(F)C[C@@H]3C(=O)N3CCc4c(-c5ccccc5)nc5ccc(F)cc5c43)cc2)n1` [Example 9, N-{(1R,2S)-4,4-difluoro-2-[(8-fluoro-4-phenyl-2,3-dihydro-1H-pyrrolo[3,2-c]quinolin-1-yl)carbonyl]cyclohexyl}-4-(3-methyl-1H-pyrazol-1-yl)benzamide], the inhibition at 10 µM came to 99.1% in assay [1] and 84.1% in assay [2] (test compound 10^−5 M). The inhibition at 1 µM in assay [1] (test compound 10^−6 M) turned out to be 101%; in assay [2] (test compound 10^−6 M), 96.7%. Moreover, the inhibition at 0.1 µM in assay [1] (test compound 10^−7 M) turned out to be 99.9%; in assay [2] (test compound 10^−7 M), 100%. For the same compound, the inhibition at 0.01 µM stood at 93.8% in assay [1] (test compound 10^−8 M) and 81.9% in assay [2] (test compound 10^−8 M).
On to `Cc1ccn(-c2ccc(C(=O)N[C@@H]3CCC(F)(F)C[C@@H]3C(=O)N3CCc4c(-c5nccn5COC(=O)C(C)(C)C)nc5ccccc5c43)cc2)n1` [Example 4, [2-(1-{[(1S,2R)-5,5-difluoro-2-({[4-(3-methyl-1H-pyrazol-1-yl)phenyl]carbonyl}amino)cyclohexyl]carbonyl)-2,3-dihydro-1H-pyrrolo[3,2-c]quinolin-4-yl)-1H-imidazol-1-yl]methyl 2,2-dimethylpropanoate], for which the inhibition at 1 µM in assay [1] (test compound 10^−6 M) was determined as 80.1%; in assay [2] (test compound 10^−6 M) it was 98.7%. Further, the inhibition at 0.1 µM was 31.6% in assay [1] (test compound 10^−7 M) and 39.5% in assay [2] (test compound 10^−7 M). The inhibition at 0.01 µM is -7.5% in assay [1] (test compound 10^−8 M) and -6.8% in assay [2] (test compound 10^−8 M). Also, the inhibition at 10 µM in assay [2] (test compound 10^−5 M) was found to be 91%.
With `Br.Cc1ccn(-c2ccc(C(=O)N[C@@H]3CCC(F)(F)C[C@@H]3C(=O)N3CCc4c(-c5ncc[nH]5)nc5ccccc5c43)cc2)n1` [Example 2, N-[(1R,2S)-4,4-difluoro-2-{[4-(1H-imidazol-2-yl)-2,3-dihydro-1H-pyrrolo[3,2-c]quinolin-1-yl]carbonyl}cyclohexyl]-4-(3-methyl-1H-pyrazol-1-yl)benzamide hydrobromide], the “hNK2 receptor binding inhibitory activity (inhibitory rate (%))” value in assay [1] (test compound 10^−6 M) is 100.7%; in assay [1] (test compound 10^−7 M), 99.7%; in assay [1] (test compound 10^−8 M), 99.6%. In addition, the “Antagonistic activity (inhibitory rate (%))” value is given as 88.8% in assay [2] (test compound 10^−5 M), 102.2% in assay [2] (test compound 10^−6 M), 102.8% in assay [2] (test compound 10^−7 M) and 100.4% in assay [2] (test compound 10^−8 M).
For `Cc1ccn(-c2ccc(C(=O)N[C@@H]3CCC(F)(F)C[C@@H]3C(=O)N3CCc4c(-c5ccsc5)nc5ccccc5c43)cc2)n1` [Example 7, N-[(1R,2S)-4,4-difluoro-2-{(4-thiophen-3-yl-2,3-dihydro-1H-pyrrolo[3,2-c]quinolin-1-yl)carbonyl]cyclohexyl}-4-(3-methyl-1H-pyrazol-1-yl)benzamide], the inhibition at 10 µM was found to be 102% in assay [1] and 83.7% in assay [2] (test compound 10^−5 M). Moreover, the inhibition at 1 µM was determined as 100% in assay [1] (test compound 10^−6 M) and 99.3% in assay [2] (test compound 10^−6 M). The inhibition at 0.1 µM in assay [1] (test compound 10^−7 M) and in assay [2] (test compound 10^−7 M) was 100% in each case. In addition, the inhibition at 0.01 µM came out at 98.8% in assay [1] (test compound 10^−8 M) and 98.6% in assay [2] (test compound 10^−8 M).
